Experimental data reported in the supplement of paper PMC10307832.

Legend:
Test in all cases: relative viability (nuclei count vs DMSO), 5 days (fraction); higher = more cells survive
Trametinib + Lapatinib = compound: CC(=O)Nc1cccc(-n2c(=O)n(C3CC3)c(=O)c3c(Nc4ccc(I)cc4F)n(C)c(=O)c(C)c32)c1 [Trametinib] + CS(=O)(=O)CCNCc1ccc(-c2ccc3ncnc(Nc4ccc(OCc5cccc(F)c5)c(Cl)c4)c3c2)o1 [Lapatinib] (partner 2 µM)
In short: (§1)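 Relative viability equals treated-well nuclei counts divided by vehicle-well nuclei counts. Counts came from 4× images of lung cancer cell lines grown in 1536-well plates for 5 days after pin-tool dosing on the day after seeding. Dosing used one drug alone or a fixed anchor-drug dose plus five library-drug doses (not always all listed) in √10 steps, and values are medians of duplicate plates.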

[1] = compound: CN1C=C(C2=CC=CC=C21)/C=C\3/C4=C(C=CC=N4)NC3=O + Cc1nc(NC(=O)N2CCC[C@H]2C(N)=O)sc1-c1ccnc(C(C)(C)C(F)(F)F)c1 [Alpelisib] (partner 2 µM)
In short: as §1

[2] = compound: CN1C=C(C2=CC=CC=C21)/C=C\3/C4=C(C=CC=N4)NC3=O + Cc1nc(Nc2ncc(C(=O)Nc3c(C)cccc3Cl)s2)cc(N2CCN(CCO)CC2)n1 [Dasatinib] (partner 0.075 µM)
In short: as §1

Cell Line	relative viability (Trametinib + Lapatinib; first compound 0.0025 µM)	relative viability (Trametinib + Lapatinib; first compound 0.007906 µM)	relative viability (Trametinib + Lapatinib; first compound 0.025 µM)	relative viability (Trametinib + Lapatinib; first compound 0.07906 µM)	relative viability (Trametinib + Lapatinib; first compound 0.25 µM)	relative viability ([1]; first compound 0.02 µM)	relative viability ([1]; first compound 0.06325 µM)	relative viability ([1]; first compound 0.2 µM)	relative viability ([1]; first compound 0.6325 µM)	relative viability ([1]; first compound 2 µM)	relative viability ([2]; first compound 0.02 µM)	relative viability ([2]; first compound 0.06325 µM)	relative viability ([2]; first compound 0.2 µM)	relative viability ([2]; first compound 0.6325 µM)	relative viability ([2]; first compound 2 µM)
ABC-1	0.789	1.16	1.18	1.13	1.2	1.05	0.785	0.84	0.714	0.923	0.484	0.424	0.53	0.562	0.56
NCI-H460	0.897	0.754	0.42	0.148	0.0413	0.539	0.466	0.53		0.391	0.648	0.448	0.388	0.44	0.459
NCI-H1395	1.05	0.869	0.834	0.907	0.406	1.11	1.08		1.3	0.928	0.399	0.425	0.371	0.422	0.392
EBC-1	0.189	0.199	0.189	0.225	0.213	0.727	0.776	0.894	0.823	0.784					
NCI-H23	0.872	0.74	0.335	0.529	0.211	0.628	0.522		0.602	0.689	0.769	0.741	0.518	0.698	0.8
LOU-NH91	0.745	0.736	0.603	0.753	0.414	0.658	0.698	0.598	0.698	0.69	0.58	0.501	0.464	0.516	0.466
NCI-H2009	0.841	0.612	0.225	0.343	0.236	1.2	1.14	1.22	1.24	1.05	0.265	0.295	0.261	0.333	0.315
NCI-H358	0.38	0.376	0.309	0.295	0.328	0.824	0.776	0.752	0.833	0.791	0.145	0.166	0.174	0.186	0.198
NCI-H2126	0.721	0.675	0.46	0.703	0.718	0.794	0.775	0.741	0.716	0.6	0.548	0.534	0.547	0.545	0.432
ChaGo-K-1											0.477	0.544	0.418	0.587	0.576
NCI-H1437	0.673	0.278	0.17	0.178	0.209	0.877	0.897	1.15	1.1	1.16	0.411	0.416	0.3	0.455	0.479
SK-LU-1	0.791	0.721	0.538	0.426	0.304	0.879	0.671	0.956	0.94	1.17	0.118	0.129	0.175	0.191	0.154
NCI-H838	0.846	0.933		0.634	0.428	0.603	0.859	0.792	0.901	0.937	0.146	0.277	0.242	0.27	0.261
NCI-H1755	0.969	0.897	0.849	0.871	0.863	0.872	0.922	0.944	0.836	0.858	0.365	0.411	0.37	0.402	0.351
NCI-H2228	0.881	0.513	0.765	0.734	0.286	0.718	0.645		0.919	0.674	0.524	0.458			0.485
NCI-H1915	1.01	0.929	0.873	0.538	0.253	1.03	1.1	1.08	1.18	1.04	0.331	0.295	0.274	0.338	0.31
NCI-H2347	0.961	0.56	0.503	0.435	0.452	1.09	0.972	1.02	0.89	1.1		0.296	0.222	0.302	0.938
HARA	0.585	0.583	0.541	0.513	0.509	0.677	0.812	0.783	0.63	0.734	0.313	0.265		0.254	0.244
NCI-H2085	0.783	0.707	0.426	0.668	0.549	0.967	0.849	1.01	0.852	0.949	0.248	0.273	0.195	0.227	0.204
NCI-H650	0.885	1.19	0.845	0.825	0.498	1.07	1.12		1.24	1.09	0.519	0.494		0.415	0.39
A549	0.749	0.667	0.618	0.499	0.0742	0.863	0.736	0.843	0.808	0.691					
NCI-H1703		1.09	0.887	0.96	0.859	0.436	0.299	0.324	0.41	0.268					
NCI-H1299	1.01	0.994	0.901	0.87	0.555	1.06	1.14	1.14	1.1	1.06					
NCI-H441						0.795		0.898	0.91	0.881	0.541	0.638	0.548	0.538	0.677
NCI-H522											0.896	0.803	0.844	0.784	0.874
NCI-H1623											0.469	0.625	0.49	0.457	0.505
